Consider three compounds from patent US20070155771A1, “Methods and means for treating protein conformational disorders” (priority 2003, published 2007).

Series [1] has as its system COS-7 cells expressing EGFP fused to 19 alanines (A19). In words: Aggregate formation and abnormal cell nuclei in transiently transfected COS-7 cells expressing A19. The following applies: immunofluorescence; 48 hours after transfection; drug 15 hours. It counts as cell-based, African green monkey. An excerpt: (§1) Mammalian expression vectors comprising EGFP (pEGFP-C1, Clontech) fused at its C-terminus with a Huntington's Disease gene exon 1 fragment with 74 polyglutamine repeats (Q74) or a polyalanine stretch of 19 repeats (A19) were used (Rankin, J. et al (2000) Biochem. J., 348, 15-19; Narain, Y. et al (1999) J. Med. Genet., 36, 739-746.). A Haemagglutinin-tagged Huntington's Disease gene exon 1 fragment with 74 polyglutamine repeats in pHM6 vector (Q74-HA) was also used. The PC12 stable lines expressing exon 1 of Huntington gene were as described in Wyttenbach A. et al., (2001) Hum. Mol. Genet. 10 1829-45.
(§2) African green monkey kidney cells (COS-7) were grown in Dulbecco's Modified Eagle Medium (DMEM, Sigma) supplemented with 10% Fetal Bovine Serum (FBS), 100 U/ml Penicillin/Streptomycin, 2 mM L-Glutamine and 1 mM Sodium Pyruvate at 37° C., 5% Carbon dioxide. The cells were grown on coverslips in six-well plates for immunofluorescence analysis, or were directly grown in six-well plates to 60-80% confluency for 24 hours for western blot analysis. Transfection was done using LipofectAMINE reagent (Invitrogen) using the manufacturer's protocol. The transfection mixture was replaced by normal culture medium after 5 hours incubation at 37° C. and the transfected cells were analysed by immunofluorescence or immunoblot 48 hours after transfection. The cells were left untreated or treated with 10 mM 3-methyl adenine (3-MA, Sigma), 0.5 mM N^6, N^6, Dimethyl adenosine (DMA, Sigma), 0.2 μg/ml Rapamycin (Sigma), 200 nM Bafilomycin A1 (BafA1, Sigma), 10 μM Lactacystin (Sigma) or 10 μM epoxomicin (Affinity research products ltd.) for 15 hours before fixation for immunofluorescence or processing for western blots. DMA, BafA1, epoxomicin and rapamycin were dissolved in DMSO and 3-MA and lactacystin were in water. Equal amounts of water or DMSO were added to the untreated controls, where relevant. The cells on coverslips were rinsed with 1×PBS, fixed with 4% paraformaldehyde in 1×PBS for 20 min and mounted in antifadent supplemented with 4′,6-diamidino-2-phenylindole (DAPI, 3 μg/ml, Sigma) to allow visualisation of nuclear morphology. The PC12 stable cells were maintained at 75 μg/ml hygromycin in standard medium consisting of high glucose DMEM (Sigma) with 100 U/ml penicillin/streptomycin, 2 mM L-glutamine (Invitrogen), 10% heat-inactivated horse serum (Invitrogen), 5% Tet-approved fetal bovine serum (FBS) (Clontech) and 100 μg/ml G418 (Invitrogen) at 37° C., 10% CO2. The cells were seeded at 1-2×10^5 per well in 6-well plates and were induced with 1 μg/ml doxycycline (Sigma) for 8 hours. The expression of transgenes was switched off by removing doxycycline from the medium. Cells were either left untreated or treated with 3-MA, BafA1, epoxomicin, lactacystin, rapamycin, 10 μg/ml cycloheximide (Sigma) or cycloheximide+rapamycin at the concentrations specified above for 24, 48 or 72 hours and the medium with the inhibitors/activator changed every 24 hours. The cells were then scraped off from the wells into 1.5 ml eppendorf tubes, pelleted at 8000 rpm and washed twice with 1×PBS. They were either fixed with 4% paraformaldehyde for 20 minutes and mounted in DAPI over coverslips on glass slides or processed for western blot analysis. CCI-779 was supplied by Wyeth Pharmaceuticals (Philadelphia). For tissue culture experiments, a stock solution of 1M in ethanol was prepared the day of experiment and was diluted in the appropriate medium
(§3) The pellets for westerns from COS-7 or PC12 cells were lysed on ice in Laemmli buffer (62.5 mM Tris-HCl pH6.8, 5% β-mercaptoethanol, 10% glycerol, and 0.01% bromophenol blue) for 30 min in the presence of protease inhibitors (Roche Diagnostics). The lysates were subjected to SDS-PAGE (10%) electrophoresis and proteins transferred onto nitrocellulose membrane (Amersham Pharmacia Biotech). […]

In series [2] the test system is COS-7 cells expressing an exon 1 fragment of the HD gene with 74 glutamines (Q74). In words: Aggregate formation and abnormal cell nuclei in transiently transfected COS-7 cells expressing Q74. The conditions noted are these: 48 hours after transfection. It counts as cell-based, African green monkey.
Source text: as §1, §2, §3

Series [3] relates to PC12 cell line expressing EGFP-tagged HD exon 1 with Q74. The series can be described thus: Turnover of Q74 protein and aggregates in stable doxycycline-inducible PC12 cells after switching expression off. It counts as cell-based, rat. As for the experimental part:
as §2
The pellets for westerns from COS-7 or PC12 cells were lysed on ice in Laemmli buffer (62.5 mM Tris-HCl pH6.8, 5% β-mercaptoethanol, 10% glycerol, and 0.01% bromophenol blue) for 30 min in the presence of protease inhibitors (Roche Diagnostics). The lysates were subjected to SDS-PAGE (10%) electrophoresis and proteins transferred onto nitrocellulose membrane (Amersham Pharmacia Biotech). The primary antibodies used include mouse monoclonal anti-GFP antibody (8362-1, Clontech) at 1:2000, rabbit monoclonal anti-actin antibody (A2066, Sigma) at 1:3000, mouse monoclonal anti-tubulin antibody (Clone DM 1A, Sigma) at 1:1000 and mouse monoclonal anti-HA antibody (Covance) at 1:1000. Blots were probed with Horse Radish Peroxidase (HRP) conjugated anti-mouse or anti-rabbit IgG (Bio Rad) at 1:2000. Bands were visualised using the ECL detection reagent (Amersham). […]

Series [4] has as its system human wild-type, A30P and A53T α-synuclein. The series can be described thus: α-Synuclein degradation in inducible PC12 cell lines (western blot), all forms. It counts as cell-based. An excerpt: Human α-synuclein with a HA tag at the N-terminus and a 6His tag at the C-terminus was amplified from pHM6α-synuclein constructs (Furlong, R. A. et a; 1 (2000) Biochem. J. 346, 577581) and inserted into pTRE2 hyg vector (Clontech) using Nhe I/Sal I sites. Constructs were confirmed by sequencing before use. The pTRE2 hygα-synuclein construct and pTettTS (Clontech) were cotransfected into PC12 TetOn cells (Clontech), using Lipofectamine (Invitrogen) and Plus Reagent (Invitrogen). Single colonies were isolated using cloning cylinders (Sigma) and cells were grown and tested for α-synuclein expression upon induction. Cell lines were subjected to a further round of purification from single colonies to ensure that lines were pure.
PC12 cells were grown in Dulbecco's modified eagle's medium (DMEM, Sigma) supplemented with 10% horse serum (Sigma), 5% fetal bovine serum (Sigma), 100 U/ml penicillin/streptomycin, 2 mM L-glutamine, […] G418 (Invitrogen) and […] hygromycin B (Calbiochem) at 37° C., 10% CO2. To induce differentiation, cells were grown in media containing 1% horse serum and 100 ng/ml nerve growth factor (2.5S, Upstate Biotechnology) and incubated for about 5 days. Cells were induced to express synuclein with […] doxycycline (Sigma).
Cells were induced for 24 hours and then washed twice with media to remove doxycycline. Then cells were incubated in […] media containing either 10 mM 3-methyladenine (3MA, Sigma), 200 nM bafilomycin A1 (Sigma), […] rapamycin (Sigma), […] lactacystin (Sigma), […] epoxomicin (Affinity Research Products Ltd) or carrier controls (water or DMSO (Sigma)). 3MA and lactacystin were made up in water and rapamycin, epoxomicin and bafilomycin were dissolved in DMSO.
After 24 hours the media was replaced with fresh media plus drug and after a further 24 hours cell pellets were collected and stored at −80° C. until required.
Cell pellets were collected and stored at −80° C. until needed. Cells were lysed on ice in lysis buffer: 1% TritonX100, 20 mM TRIS pH7.5, 137 mM NaCl, 1 mM EGTA, 10% glycerol, 1.5 mM MgCl2 and protease inhibitor cocktail (Complete, Roche).
Samples were then mixed with loading buffer: 62.5 mM TRIS pH 6.8, 2% SDS, 10% glycerol, 0.05% bromophenol blue, 100 mM dithiothreitol and 700 mM β-mercaptoethanol and boiled before loading onto 14% denaturing polyacrylamide gels.
Each lane was loaded with protein from a similar number of cells, based on cell counting at the time of seeding. Proteins were transferred onto Hybond ECL nitrocellulose membrane (Amersham). α-Synuclein was detected with an antiHA monoclonal antibody (Covance) at 1:1000 dilution with 4-18 hours incubation. HRP conjugated antimouse antibody (Amersham) at 1:2000 dilution was then added to blots and antibody was detected using ECL blotting reagents (Amersham) and Hyperfilm ECL (Amersham). Blots were stripped and then reprobed for α-tubulin (Sigma) at 1:1000 dilution.
PC12 cell lines as described above (i.e. mitotic and neuronally differentiated wild-type, A53T and A30P PC12 lines) were induced for 24 hours, then doxycycline was removed and the drugs were added for 48 hours. The trends we observed were similar in cells treated with drugs for 24 and 72 hours.
For orientation: A western blot detects proteins with antibodies after separation by electrophoresis.

As for `CN(C)c1ncnc2c1ncn2[C@@H]1O[C@H](CO)[C@@H](O)[C@H]1O` [DMA, N^6,N^6-dimethyladenosine], the “appearance (size, number) of A19 aggregates in cells with aggregates” value in series [1] is “Identical aggregate phenotypes”. In series [2] (immunofluorescence, drug 15 hours), the “appearance (size, number) of Q74 aggregates in cells with aggregates” value was “Identical aggregate phenotypes”.

Take `C[C@@H]1C[C@@H]([C@H](O)CC2CC(=O)NC(=O)C2)C(=O)[C@@H](C)C1` [cycloheximide]: the “cell fluorescence (EGFP-Q74 clearance)” value in series [3] (8 h ON then 72 h OFF with drug, 0.2 μg/ml rapamycin, 10 μg/ml cycloheximide) was “increased”. In series [3] (8 h ON then 72 h OFF with drug, vs time-matched control), the “numbers of aggregate containing cells / visible aggregates” value is on record as “increased”.

Take `CC(=O)N[C@@H](CSC(=O)[C@]1([C@@H](O)C(C)C)NC(=O)[C@H](C)[C@@H]1O)C(=O)O` [lactacystin]: the “proportions of Q74-expressing cells with aggregates” value in series [2] (drug for 15 hours before fixing: 10 mM 3-MA, 0.5 mM DMA, 200 nM BafA1, 0.2 μg/ml rapamycin, 10 μM epoxomicin, 10 μM lactacystin, vs untreated) is “increases”. Besides, in series [3] (8 h ON then 48 h OFF with 10 μM epoxomicin or 10 μM lactacystin, vs control), the “number of aggregate-containing cells” value is on record as “increased Q74 aggregation”. Moreover, the “cell death or overt aggregate formation” value in series [4] is “did not cause increased cell death or overt aggregate formation”. The α-synuclein levels result in series [4] (induced 24 hours, doxycycline removed, drug 48 hours, cycling and differentiated cells, 0.2 mg/ml rapamycin, 10 mM lactacystin, 10 mM epoxomicin [sic]) was “increase”.
